Source: patent publication US10760110B2, “Antibiotic testing and screening system” (priority 2017, dated 2020)
≈ marks a conversion by molar mass, not a printed value. Where two headings read alike, the source gives them in different places.

Key:
Conditions in all cases: Klebsiella pneumoniae
[1] = test system: K. pneumoniae NVT1001 strains with carbapenemase plasmids; assay: Etest MIC of β-lactams, OmpK35/36 loss, ΔramR and/or carbapenemase (Table 9); format: cell-based, Klebsiella pneumoniae
Method in brief: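 Cloned resistance genes in pACYC177 or pACYC184 were electroporated into K. pneumoniae NVT1001. MICs were determined by Etest and rounded up to the next two-fold value. Ceftazidime and cefotaxime against the blaOXA-48 construct were also tested by CLSI broth microdilution, with breakpoints from CLSI 2017 (cephalothin CLSI 2015, moxifloxacin EUCAST 2017).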

[2] = test system: K. pneumoniae NVT1001 and its ΔompK35/36 and/or ΔramR mutants; assay: Etest MIC, OmpK35/36 loss and AcrAB-TolC overexpression (ΔramR) strains (Table 6); format: cell-based, Klebsiella pneumoniae
Method in brief: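 Ceftazidime and cefotaxime were tested by CLSI broth microdilution on the blaOXA-48 pACYC177 transformant of NVT1001, using CLSI 2017 breakpoints. Parent, porin-deleted (ΔompK35/36) and ΔramR strains were tested by Etest, with values between two-fold dilutions rounded up.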

[3] = test system: K. pneumoniae NVT1001 ΔramRΔompK35/36 mutant and its revertants; assay: Etest MIC, ΔramRΔompK35/36 mutant and its revertants (Table 7); format: cell-based

`CO/N=C(\C(=O)N[C@@H]1C(=O)N2C(C(=O)O)=C(COC(C)=O)CS[C@H]12)c1csc(N)n1` [Cefotaxime] was tested, and the MIC ([1]; IMP-8 on pACYC177, WT (NVT1001), read-out: MIC) was 64 µg/mL, the MIC ([1]; IMP-8 on pACYC177, Δ35 (ΔompK35 mutant)) was 128 µg/mL and the MIC ([1]; IMP-8 on pACYC177, Δ35/36 (ΔompK35/36 mutant)) was greater than 256 µg/mL. It also gave an MIC ([1]; IMP-8 on pACYC177, Δ36 (ΔompK36 mutant)) of 256 µg/mL, an MIC ([1]; IMP-8 on pACYC177, ΔramR mutant) of 128 µg/mL and an MIC ([1]; IMP-8 on pACYC177, ΔramRΔ35 (ΔramRΔompK35 mutant)) of 128 µg/mL. The MIC ([1]; IMP-8 on pACYC177, ΔramRΔ35/36 (ΔramRΔompK35/36 mutant)) was 256 µg/mL, the MIC ([1]; IMP-8 on pACYC177, ΔramRΔ36 (ΔramRΔompK36 mutant)) was 256 µg/mL and the MIC ([1]; KPC-2 on pACYC177, WT (NVT1001), read-out: MIC) was 128 µg/mL. It also gave an MIC ([1]; KPC-2 on pACYC177, Δ35 (ΔompK35 mutant)) of 256 µg/mL, an MIC ([1]; KPC-2 on pACYC177, Δ35/36 (ΔompK35/36 mutant)) greater than 256 µg/mL and an MIC ([1]; KPC-2 on pACYC177, Δ36 (ΔompK36 mutant)) of 256 µg/mL. The MIC ([1]; KPC-2 on pACYC177, ΔramR mutant) was 256 µg/mL, the MIC ([1]; KPC-2 on pACYC177, ΔramRΔ35 (ΔramRΔompK35 mutant)) was 256 µg/mL and the MIC ([1]; KPC-2 on pACYC177, ΔramRΔ35/36 (ΔramRΔompK35/36 mutant)) was greater than 256 µg/mL. For the same compound, the MIC ([1]; KPC-2 on pACYC177, ΔramRΔ36 (ΔramRΔompK36 mutant)) was greater than 256 µg/mL, the MIC ([1]; KPC-3 on pACYC177, WT (NVT1001), read-out: MIC) was 128 µg/mL and the MIC ([1]; KPC-3 on pACYC177, Δ35 (ΔompK35 mutant)) was 256 µg/mL. It also gave an MIC ([1]; KPC-3 on pACYC177, Δ35/36 (ΔompK35/36 mutant)) greater than 256 µg/mL, an MIC ([1]; KPC-3 on pACYC177, Δ36 (ΔompK36 mutant)) of 256 µg/mL and an MIC ([1]; KPC-3 on pACYC177, ΔramR mutant) of 256 µg/mL. The MIC ([1]; KPC-3 on pACYC177, ΔramRΔ35 (ΔramRΔompK35 mutant)) was 256 µg/mL, the MIC ([1]; KPC-3 on pACYC177, ΔramRΔ35/36 (ΔramRΔompK35/36 mutant)) was greater than 256 µg/mL and the MIC ([1]; KPC-3 on pACYC177, ΔramRΔ36 (ΔramRΔompK36 mutant)) was greater than 256 µg/mL. It also gave an MIC ([1]; NDM-1 on pACYC177, WT (NVT1001), read-out: MIC) of 256 µg/mL, an MIC ([1]; NDM-1 on pACYC177, Δ35 (ΔompK35 mutant)) of 256 µg/mL and an MIC ([1]; NDM-1 on pACYC177, Δ35/36 (ΔompK35/36 mutant)) greater than 256 µg/mL. The MIC ([1]; NDM-1 on pACYC177, Δ36 (ΔompK36 mutant)) was greater than 256 µg/mL, the MIC ([1]; NDM-1 on pACYC177, ΔramR mutant) was greater than 256 µg/mL and the MIC ([1]; NDM-1 on pACYC177, ΔramRΔ35 (ΔramRΔompK35 mutant)) was greater than 256 µg/mL. The MIC ([1]; NDM-1 on pACYC177, ΔramRΔ35/36 (ΔramRΔompK35/36 mutant)) was greater than 256 µg/mL, the MIC ([1]; NDM-1 on pACYC177, ΔramRΔ36 (ΔramRΔompK36 mutant)) was greater than 256 µg/mL and the MIC ([1]; OXA-48 on pACYC177, WT (NVT1001), read-out: MIC) was 2 µg/mL. It also gave an MIC ([1]; OXA-48 on pACYC177, Δ35 (ΔompK35 mutant)) of 4 µg/mL, an MIC ([1]; OXA-48 on pACYC177, Δ35/36 (ΔompK35/36 mutant)) of 32 µg/mL and an MIC ([1]; OXA-48 on pACYC177, Δ36 (ΔompK36 mutant)) of 16 µg/mL. The MIC ([1]; OXA-48 on pACYC177, ΔramR mutant) was 4 µg/mL, the MIC ([1]; OXA-48 on pACYC177, ΔramRΔ35 (ΔramRΔompK35 mutant)) was 4 µg/mL and the MIC ([1]; OXA-48 on pACYC177, ΔramRΔ35/36 (ΔramRΔompK35/36 mutant)) was 32 µg/mL. It also gave an MIC ([1]; OXA-48 on pACYC177, ΔramRΔ36 (ΔramRΔompK36 mutant)) of 32 µg/mL, an MIC ([1]; VIM-1 on pACYC177, WT (NVT1001), read-out: MIC) greater than 256 µg/mL and an MIC ([1]; VIM-1 on pACYC177, Δ35 (ΔompK35 mutant)) greater than 256 µg/mL. The MIC ([1]; VIM-1 on pACYC177, Δ35/36 (ΔompK35/36 mutant)) was greater than 256 µg/mL, the MIC ([1]; VIM-1 on pACYC177, Δ36 (ΔompK36 mutant)) was greater than 256 µg/mL and the MIC ([1]; VIM-1 on pACYC177, ΔramR mutant) was greater than 256 µg/mL. It also gave an MIC ([1]; VIM-1 on pACYC177, ΔramRΔ35 (ΔramRΔompK35 mutant)) greater than 256 µg/mL, an MIC ([1]; VIM-1 on pACYC177, ΔramRΔ35/36 (ΔramRΔompK35/36 mutant)) greater than 256 µg/mL and an MIC ([1]; VIM-1 on pACYC177, ΔramRΔ36 (ΔramRΔompK36 mutant)) greater than 256 µg/mL. The MIC ([1]; no supplemental plasmid, WT (NVT1001), read-out: MIC) was 0.06 µg/mL, the MIC ([1]; no supplemental plasmid, Δ35 (ΔompK35 mutant)) was 0.125 µg/mL and the MIC ([1]; no supplemental plasmid, Δ35/36 (ΔompK35/36 mutant)) was 2 µg/mL. It also gave an MIC ([1]; no supplemental plasmid, Δ36 (ΔompK36 mutant)) of 0.25 µg/mL, an MIC ([1]; no supplemental plasmid, ΔramR mutant) of 1 µg/mL and an MIC ([1]; no supplemental plasmid, ΔramRΔ35 (ΔramRΔompK35 mutant)) of 1 µg/mL. It also gave an MIC ([1]; no supplemental plasmid, ΔramRΔ35/36 (ΔramRΔompK35/36 mutant)) of 4 µg/mL, an MIC ([1]; no supplemental plasmid, ΔramRΔ36 (ΔramRΔompK36 mutant)) of 4 µg/mL and an MIC ([2]; WT, NVT1001, read-out: MIC) of 0.06 µg/mL (≈ 0.132 µM). The MIC ([2]; Δ35, ΔompK35 mutant) was 0.125 µg/mL (≈ 0.274 µM), the MIC ([2]; Δ35/36, ΔompK35/36 mutant) was 2 µg/mL (≈ 4.39 µM) and the MIC ([2]; Δ36, ΔompK36 mutant) was 0.25 µg/mL (≈ 0.549 µM). It also gave an MIC ([2]; ΔramR mutant) of 1 µg/mL (≈ 2.2 µM), an MIC ([2]; ΔramRΔ35, ΔramRΔompK35 mutant) of 1 µg/mL (≈ 2.2 µM) and an MIC ([2]; ΔramRΔ35/36, ΔramRΔompK35/36 mutant) of 4 µg/mL (≈ 8.78 µM). It also gave an MIC ([2]; ΔramRΔ36, ΔramRΔompK36 mutant) of 4 µg/mL (≈ 8.78 µM), an MIC ([3]; ΔramRΔompK35/36::ompK35/36 revertant) of 1 µg/mL and an MIC ([3]; ΔramRΔompK35/36::ompK35 revertant) of 4 µg/mL. The MIC ([3]; ΔramRΔompK35/36::ompK36 revertant) was 1 µg/mL, the MIC ([3]; ΔramRΔompK35/36::ramR revertant) was 2 µg/mL and the MIC ([3]; ΔramRΔompK35/36::ramR::ompK35/36 revertant) was 0.06 µg/mL. For the same compound, the MIC ([3]; ΔramRΔompK35/36::ramR::ompK35 revertant) was 0.25 µg/mL, the MIC ([3]; ΔramRΔompK35/36::ramR::ompK36 revertant) was 0.125 µg/mL and the MIC ([3]; ΔramRΔompK35/36 mutant) was 4 µg/mL.
